According to patent publication US20110028566A1, “COMPOSITIONS AND PRODUCTS CONTAINING CYCLOALIPHATIC DIOL ANTIMICROBIAL AGENTS AND METHODS OF USING THE COMPOSITIONS AND PRODUCTS” (EASTMAN CHEMICAL COMPANY, priority 2009, published 2011):
Several values for one entry are separate records, joined by “and”; a condition that tells them apart may be missing. Equal values may be shown once.

What was measured:
Format in all cases: cell-based
[1] = system: trivalent bacterial-fungal inocula; assay: 15-day biofouling control in B-100 biodiesel:Bushnell-Haas broth, visual turbidity; set-up: key: 0 = No Growth; 1 = Slight Growth; 2 = Moderate Growth; 3 = Heavy Growth; settings: biocide 0 mg/L, 15 days, 22° C., trivalent inoculum 50 uL
Procedure: Antimicrobial efficacy data (Table 54 & Table 55) were obtained for 1,4-CHDM with and without biocide in protection of B-100 biodiesel from microbial growth derived via either biodiesel-acclimated bioslime or trivalent bacterial-fungal inocula after 15-day exposure at 22° C. This testing was via a visual turbidity methodology. Neither micro-liter plates nor automatic plate reader could be used in this experiment due to the inherent biphasic nature of the system. B-100 biodiesel:Bushnell-Haas broth was used, which is a minimal salts medium specially designed for evaluating growth of microorganisms on hydrocarbons. Samples were evaluated visually (i.e., the more the turbidity, the more the growth, the less the turbidity, the less the growth, and no turbidity means no growth).

[2] = system: Pseudomonas aeruginosa ATCC 27853; assay: MIC determination and synergy testing (Kull synergy index), microplate; settings: for QA, MIC of CHDM alone: plate 169E (CG series)
Outline: (§1)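 Broth microdilution in TSB (pH 7.3) for bacteria or SDB (pH 5.6) for C. albicans, 1:1.3333 serial dilutions covering one log in nine steps, agents alone or blended for synergy; triplicate wells inoculated to ~10^6 CFU/mL bacteria or ~10^5 CFU/mL yeast; uninoculated wells correct compound turbidity.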

[3] = system: Staphylococcus aureus ATCC 25923; assay: as above; settings: for QA, MIC of CHDM alone / QA/a: concentration of CHDM alone (QA, MIC): S. aureus; for QA/a: concentration of CHDM alone (QA, MIC): Table 49
Outline: as §1

[4] = P. aeruginosa, plate 126E, day 2, PE and CHDM

OCC1CCC(CO)CC1 (centres unmarked) [1,4-CHDM, 1,4-cyclohexanedimethanol]
Growth (visual turbidity rating) ([1]; 1,4-CHDM 0.1% (v/v)): 3
Growth (visual turbidity rating) ([1]; 1,4-CHDM 0.2% (v/v)): 3
Growth (visual turbidity rating) ([1]; 1,4-CHDM 0.3% (v/v)): 3
Growth (visual turbidity rating) ([1]; 1,4-CHDM 0.4% (v/v)): 3
Growth (visual turbidity rating) ([1]; 1,4-CHDM 0.5% (v/v)): 3
QA/a ([2]; CHDM alone (QA) or in combination with BA:DHA (a), plate 149E, day 1): 1.31
QA/a ([2]; CHDM alone (QA) or in combination with BA:DHA (a), plate 149E, day 2): 1.75
QA/a ([2]; CHDM alone (QA) or in combination with DMDM hydantoin (a), plate 150E, day 1): 1.31
QA/a ([2]; CHDM: MIC alone (QA) or conc. in combination with CP (a), plate 148E, day 1): 1.31
QA/a ([2]; CHDM: MIC alone (QA) or conc. in combination with MIT (a), plate 147E, day 1): 1.31
QA/a ([2]; CHDM: MIC alone (QA) or conc. in combination with MIT (a), plate 147E, day 2): 2.33
QA/a ([2]; CHDM: MIC alone (QA) or conc. in combination with MIT (a), plate 210E, day 1): 1.75
QA/a ([2]; CHDM: MIC alone (QA) or conc. in combination with MIT (a), plate 210E, day 2): 1.75
QA/a ([2]; CHDM: MIC alone (QA) or conc. in combination with MIT (a), plate 249E, day 1): 1.80
QA/a ([2]; CHDM: MIC alone (QA) or conc. in combination with MIT (a), plate 249E, day 2): 1.80
QA/a ([2]; CHDM: MIC alone (QA) or conc. in combination with MP (a), plate 146E, day 1): 1.31
QA, MIC of CHDM alone ([2]; P. aeruginosa, day 1 of incubation): 1.31 weight percent
QA, MIC of CHDM alone ([2]; P. aeruginosa, day 2 of incubation): 1.75 weight percent
QA, MIC of CHDM alone ([2]; P. aeruginosa, day 3 of incubation): 1.75 weight percent
QA/a: concentration of CHDM (MIC alone, or in the combination at an inhibitory concentration) [2, 4]: 1.75 weight percent
SI (synergy index) [2, 4]: 1.00
QA/a: concentration of CHDM alone (QA, MIC) ([2]; Table 43, P. aeruginosa, Day 1): 1.31 weight percent and 1.35 weight percent
QA/a: concentration of CHDM alone (QA, MIC) ([2]; Table 43, P. aeruginosa, Day 2): 1.75 weight percent and 1.80 weight percent and 1.35 weight percent
QA/a: concentration of CHDM alone (QA, MIC) ([2]; Table 45, P. aeruginosa, Day 1): 1.31 weight percent and 1.35 weight percent and 1.80 weight percent
QA/a: concentration of CHDM alone (QA, MIC) ([2]; Table 45, P. aeruginosa, Day 2): 2.33 weight percent and 1.75 weight percent and 1.80 weight percent
QA/a: concentration of CHDM alone (QA, MIC) ([2]; Table 48, P. aeruginosa, Day 1): 1.75 weight percent and 1.31 weight percent
QA/a: concentration of CHDM alone (QA, MIC) ([2]; Table 48, P. aeruginosa, Day 2): 2.33 weight percent and 1.75 weight percent
QA/a ([3]; CHDM alone (QA) or in combination with BA:DHA (a), plate 139D, day 1): 3.11
QA/a ([3]; CHDM alone (QA) or in combination with BA:DHA (a), plate 139D, day 2): 4.15
QA/a ([3]; CHDM alone (QA) or in combination with BA:DHA (a), plate 220D, day 1): 3.30
QA/a ([3]; CHDM alone (QA) or in combination with BA:DHA (a), plate 220D, day 2): 3.30
QA/a ([3]; CHDM alone (QA) or in combination with BA:DHA (a), plate 235D, day 1): 5.00
QA/a ([3]; CHDM alone (QA) or in combination with BA:DHA (a), plate 235D, day 2): 5.00
QA/a ([3]; CHDM: MIC alone (QA) or conc. in combination with CP (a), plate 138D, day 1): 3.11
QA/a ([3]; CHDM: MIC alone (QA) or conc. in combination with CP (a), plate 138D, day 2): 4.15
QA/a ([3]; CHDM: MIC alone (QA) or conc. in combination with MIT (a), plate 137D, day 2): 4.15
QA/a ([3]; CHDM: MIC alone (QA) or conc. in combination with MP (a), plate 166D, day 1): 3.30
QA/a ([3]; CHDM: MIC alone (QA) or conc. in combination with MP (a), plate 166D, day 2): 3.30
QA, MIC of CHDM alone ([3]; day 1 of incubation, plate 125D (CG series)): 3.11 weight percent
QA, MIC of CHDM alone ([3]; day 1 of incubation, plates 124D, 219D, 234D (PE series)): 3.30 weight percent and 3.75 weight percent and 3.11 weight percent
QA, MIC of CHDM alone ([3]; day 2 of incubation, plate 125D (CG series)): 3.11 weight percent
QA, MIC of CHDM alone ([3]; day 2 of incubation, plates 124D, 219D (PE series)): 3.11 weight percent and 3.30 weight percent
QA/a: concentration of CHDM alone (QA, MIC) ([3]; Day 1): 3.11 weight percent
QA/a: concentration of CHDM alone (QA, MIC) ([3]; Day 2): 4.15 weight percent
